Tests used:
MOOVA (seed) = assay: Assay for herbicidal activity, paddy pots: MOOVA; type: in vivo, Monochoria vaginalis PRESL; settings: three weeks after application, 0 untreated control, 100 complete kill
Text: (§1) To evaluate herbicidal activity against the paddy weeds in the paddy rice (ORYSA: Oryza sativa L.), the herbicidal activity of the compounds of the invention was compared to that of the compound No.109 (compound A) disclosed in U.S. Pat. […] The paddy weeds tested were ECHOR (Echinochloa crus-galli var. oryzicola), SCPJU (Scirpus juncoides ROXB), MOOVA (Monochoria vaginalis […] (Cyperus serotinus ROTTB), and SAGPY (Sagittaria pygmaea MTQ). The vessels employed were plastic pots having an area of 140 cm^2 and filled with a sandy loam soil containing 1.2% organic matter (pH 6).

SAGPY (tuber) = assay: Assay for herbicidal activity, paddy pots: SAGPY; type: in vivo, Sagittaria pygmaea MTQ; settings: three weeks after application, 0 untreated control, 100 complete kill
Text: as §1

ORYSA (seed) = assay: Assay for herbicidal activity, paddy pots: phytotoxicity to seeded (pregerminated) rice; type: in vivo, Oryza sativa L.; settings: in vivo
Text: as §1

ECHOR (seed) = assay: Assay for herbicidal activity, paddy pots: ECHOR; type: in vivo, Echinochloa crus-galli var. oryzicola; settings: three weeks after application, 0 untreated control, 100 complete kill
Text: as §1

ORYSA (3-leaf stage) = assay: Assay for herbicidal activity, paddy pots: phytotoxicity to transplanted rice seedlings; type: in vivo, Oryza sativa L.; settings: in vivo
Text: as §1

CYPSE (tuber) = assay: Assay for herbicidal activity, paddy pots: CYPSE; type: in vivo, Cyperus serotinus ROTTB; settings: three weeks after application, 0 untreated control, 100 complete kill
Text: as §1

SCPJU (seed) = assay: Assay for herbicidal activity, paddy pots: SCPJU; type: in vivo, Scirpus juncoides ROXB; settings: three weeks after application, 0 untreated control, 100 complete kill
Text: as §1

| SMILES | MOOVA (seed) herbicidal activity, visual percentage grading (MOOVA (seed); 0.016 kg/ha) | MOOVA (seed) herbicidal activity, visual percentage grading (MOOVA (seed); 0.063 kg/ha) | MOOVA (seed) herbicidal activity, visual percentage grading (MOOVA (seed); 0.250 kg/ha) | MOOVA (seed) herbicidal activity, visual percentage grading (MOOVA (seed); 1.000 kg/ha) | MOOVA (seed) herbicidal activity, visual percentage grading (MOOVA (seed); 4.000 kg/ha) | SAGPY (tuber) herbicidal activity, visual percentage grading (SAGPY (tuber); 0.016 kg/ha) | SAGPY (tuber) herbicidal activity, visual percentage grading (SAGPY (tuber); 0.063 kg/ha) | SAGPY (tuber) herbicidal activity, visual percentage grading (SAGPY (tuber); 0.250 kg/ha) | SAGPY (tuber) herbicidal activity, visual percentage grading (SAGPY (tuber); 1.000 kg/ha) | SAGPY (tuber) herbicidal activity, visual percentage grading (SAGPY (tuber); 4.000 kg/ha) | ECHOR (seed) herbicidal activity, visual percentage grading (ECHOR (seed); 0.016 kg/ha) | ECHOR (seed) herbicidal activity, visual percentage grading (ECHOR (seed); 0.063 kg/ha) | ECHOR (seed) herbicidal activity, visual percentage grading (ECHOR (seed); 0.250 kg/ha) | ECHOR (seed) herbicidal activity, visual percentage grading (ECHOR (seed); 1.000 kg/ha) | ECHOR (seed) herbicidal activity, visual percentage grading (ECHOR (seed); 4.000 kg/ha) | CYPSE (tuber) herbicidal activity, visual percentage grading (CYPSE (tuber); 0.016 kg/ha) | CYPSE (tuber) herbicidal activity, visual percentage grading (CYPSE (tuber); 0.063 kg/ha) | CYPSE (tuber) herbicidal activity, visual percentage grading (CYPSE (tuber); 0.250 kg/ha) | CYPSE (tuber) herbicidal activity, visual percentage grading (CYPSE (tuber); 1.000 kg/ha) | CYPSE (tuber) herbicidal activity, visual percentage grading (CYPSE (tuber); 4.000 kg/ha) | also measured |
| --- | --- | --- | --- | --- | --- | --- | --- | --- | --- | --- | --- | --- | --- | --- | --- | --- | --- | --- | --- | --- | --- |
| CC1(COCc2cccc(F)c2)CC(c2sccc2Br)=NO1 (stereo not shown) [EXAMPLE 18, 5-(3-fluorobenzyl)oxymethyl-5-methyl-3-(4-bromothiophene-5-yl)-1,2-isoxazoline] | 0% | 100% | 100% | 100% | 100% | 0% | 0% | 0% | 0% | 20% | 0% | 60% | 100% | 100% | 100% | 0% | 40% | 70% | 100% | 100% | ORYSA (seed) phytotoxicity, visual percentage grading (ORYSA (seed)): 100%; ORYSA (3-leaf stage) phytotoxicity, visual percentage grading (ORYSA (3-leaf stage)): 0%; SCPJU (seed) herbicidal activity, visual percentage grading (SCPJU (seed); 0.016 kg/ha): 0%; SCPJU (seed) herbicidal activity, visual percentage grading (SCPJU (seed); 0.063 kg/ha): 10%; SCPJU (seed) herbicidal activity, visual percentage grading (SCPJU (seed); 0.250 kg/ha): 100%; SCPJU (seed) herbicidal activity, visual percentage grading (SCPJU (seed); 1.000 kg/ha): 100%; SCPJU (seed) herbicidal activity, visual percentage grading (SCPJU (seed); 4.000 kg/ha): 100% |
| CC1(COCc2c(F)cccc2F)CC(c2ccc(Br)s2)=NO1 (stereo not shown) [EXAMPLE 11, 5-(2,6-difluorobenzyl)oxymethyl-5-methyl-3-(2-bromothiophene-5-yl)-1,2-isoxazoline] | 30% | 50% | 90% | 100% | 100% | 0% | 0% | 0% | 30% | 50% | 20% | 70% | 100% | 100% | 100% | 0% | 0% | 40% | 100% | 100% | ORYSA (3-leaf stage) phytotoxicity, visual percentage grading (ORYSA (3-leaf stage)): 0%; SCPJU (seed) herbicidal activity, visual percentage grading (SCPJU (seed); 0.016 kg/ha): 0%; SCPJU (seed) herbicidal activity, visual percentage grading (SCPJU (seed); 0.063 kg/ha): 0%; SCPJU (seed) herbicidal activity, visual percentage grading (SCPJU (seed); 0.250 kg/ha): 20%; SCPJU (seed) herbicidal activity, visual percentage grading (SCPJU (seed); 1.000 kg/ha): 30%; SCPJU (seed) herbicidal activity, visual percentage grading (SCPJU (seed); 4.000 kg/ha): 80% |
| CC1(COCc2c(F)cccc2F)CC(c2ccc([N+](=O)[O-])s2)=NO1 (stereo not shown) [EXAMPLE 23, 5-(2,6-difluorobenzyl)oxymethyl-5-methyl-3-(2-nitrothiophene-5-yl)-1,2-isoxazoline] | 0% | 50% | 70% | 100% | 100% | 0% | 0% | 0% | 0% | 0% | 0% | 30% | 100% | 100% | 100% | 0% | 0% | 50% | 80% | 100% | SCPJU (seed) herbicidal activity, visual percentage grading (SCPJU (seed); 0.016 kg/ha): 0%; SCPJU (seed) herbicidal activity, visual percentage grading (SCPJU (seed); 0.063 kg/ha): 0%; SCPJU (seed) herbicidal activity, visual percentage grading (SCPJU (seed); 0.250 kg/ha): 0%; SCPJU (seed) herbicidal activity, visual percentage grading (SCPJU (seed); 1.000 kg/ha): 0%; SCPJU (seed) herbicidal activity, visual percentage grading (SCPJU (seed); 4.000 kg/ha): 100% |
| Cc1cc(C)c(C2=NOC(C)(COCc3c(F)cccc3F)C2)s1 (stereo not shown) [EXAMPLE 15, 5-(2,6-difluorobenzyl)oxymethyl-5-methyl-3-(2,4-dimethylthiophene-5-yl)-1,2-isoxazoline] | 90% | 100% | 100% | 100% | 100% | 0% | 0% | 20% | 40% | 70% | 40% | 100% | 100% | 100% | 100% | 0% | 0% | 70% | 100% | 100% | SCPJU (seed) herbicidal activity, visual percentage grading (SCPJU (seed); 0.016 kg/ha): 20%; SCPJU (seed) herbicidal activity, visual percentage grading (SCPJU (seed); 0.063 kg/ha): 50%; SCPJU (seed) herbicidal activity, visual percentage grading (SCPJU (seed); 0.250 kg/ha): 100%; SCPJU (seed) herbicidal activity, visual percentage grading (SCPJU (seed); 1.000 kg/ha): 100%; SCPJU (seed) herbicidal activity, visual percentage grading (SCPJU (seed); 4.000 kg/ha): 100% |

— US6838416B2, “Herbicidal 5-benzyloxymethyl-1,2-isoxazoline derivatives” (Korea Research Institute of Chemical Technology, priority 2000, dated 2005)
